From US20260325465A1, “SHP-1 INHIBITORS FOR TREATING CANCER” (MDX MANAGEMENT LLC, priority 2022, published 2026)

Experiments:
[1] = test system: KPC pancreatic cancer; assay: Study-3: iSHP-1 with RT and αPD-L1, KPC pancreatic cancer; assay type: in vivo, mice; conditions: TPI-1 3 or 5 mg/kg i.p. every 3 days, right flank RT 8Gy-4Gy-2Gy, αPD-L1 100 μg
Method: (§1) FIGS. 13A-13E depict pulse-intermittent SHP-1 inhibition (iSHP-1) combination with RT and αPD-L1 treating pancreatic cancer and lung cancer. FIG. 13A depicts experimental schemes. […] Concomitantly, the tumor at the right flank was treated with 8Gy X-ray radiation (RT). After two days of intermittent period, mice on day 4 were treated with the 2nd cycle TPI-1 (i.p.) of the same dose while RT reduced to 4Gy applied to the right flank tumor. The 3rd cycle (day 7) iSHP-1 combination with RT reduced to 2Gy. Anti-PD-L1 Ab (100 μg, i.p.) was given a day following TPI-1 plus RT. FIG. 13B depicts luminescent image tracing KPC-luc and LLC-luc tumor changes post treatment. FIG. 13C depicts record of tumor volume changes and animal survival up to post-treatment 45 days.
(§2) Modalities & Dosing Strategy: i) iSHP-1—TPI-1, 3 or 5 mg/kg, i.p., 1× every 3 days. ii) Tumor focal RT: 8Gy-4Gy-2Gy, given to right flank simultaneously with iSHP-1. iii) αPD-L1: 100 μg, i.p., given a day after iSHP-1 plus RT

[2] = test system: EL4, B16, MC38, Pan01, KPC and LLC cancer cells; assay: Phagocytosis by murine bone marrow-derived macrophages; assay type: cell-based; conditions: 1 μg/ml
Method: FIGS. 2A-2G depict that the inhibition of SHP-1 enhances macrophage proinflammatory response, antigen presentation and phagocytosis in a tumor milieu. FIG. 2A and FIG. 2B depict that SHP-1 activity in macrophages is triggered by proinflammatory stimulation and the extracellular cancer cell ligation (“touching”) of macrophages (green bar in FIG. 2A). […] The SHP-2 inhibitor SHP099 (1 μg/ml) was used in assays. FIG. 2C depicts the inhibition of SHP-1 by TPI-1 dose-dependently recovers IFNγ/LPS-induced activation of STAT1 (p-STAT1) and Erk1/2 (p-Erk1/2) de-activated by SHP-1 (red line). FIG. 2D and FIG. 2E depict that the inhibition of SHP-1 in macrophages by TPI-1 enhances production of proinflammatory cytokines (FIG. 2D) and expression of immunogenic antigen presentation machinery (FIG. 2E) by IFNγ/LPS in a tumor milieu. […] The SHP-1 and SHP-2 inhibitors TPI-1 and SHP099, respectively, was used at 1 μg/ml in assays.

[3] = Study-3: adverse effects; assay type: in vivo, mice; conditions: TPI-1 with RT and αPD-L1
Method: as §1, §2

[4] = Study-2: acute adverse toxicity; assay type: in vivo, mice; conditions: intermittent iSHP-1 therapies
Method: FIGS. 12A-12D depict that pulse-intermittent inhibition of SHP-1 (iSHP-1) combined with TLR agonists (αTLR) and/or anti-PD-L1 checkpoint inhibitor effectively treat multi-lesion MC38 colorectal carcinoma. FIG. 12A depicts the treatment scheme. Mice with bilateral MC38 tumors (s.c.) were treated for two days with TPI-1 and various combinations via i.p. or s.c. A 5-day intermittent period was given before the 2nd cycle of treatments to mice that had residue tumors. FIGS. 12B and 12C depict tumor control efficacies measured by tumor volume changes (FIG. 12B) and TME reprogramming, indicating increases in tumor killing immune populations while reduction of immunosuppression. FIG. 12D depicts acute adverse toxicity, measured by body weight, proteinuria, serum ALT level and splenomegaly.

[5] = test system: KPC pancreatic ductal adenocarcinoma; assay: Study-4: late-stage, large KPC pancreatic cancer; assay type: in vivo, mice
Method: FIGS. 14A-14E depict that pulse-intermittent inhibition of SHP-1 (iSHP-1) combined with TLR agonists (αTLR) treating late-stage KPC pancreatic ductal adenocarcinoma. FIG. 14A depicts the treatment scheme. Mice with large KPC tumors were treated (i.p.) consecutively for three days with TPI-I plus TLR agonists (CpG, PolyIC and R848, each 50 μg). After the initial pulse treatment, an intermittent period of 9-day was given before the 2nd cycle of treatment of two days with TPI plus TLR agonists. FIG. 14B depicts the luminescent images of mice with KPC tumor during the course of treatment. FIG. 14C depicts tumor volume changes.
Murine models: Single large pancreatic ductal adenocarcinoma (KPC-luc) C57BL6 syngeneic
Treatments: SHP-1 inhibition (iSHP-1) combined with TLR agonists (αTLR)

[6] = Toxicity of pulse-intermittent iSHP-1 in tumor-bearing mice; assay type: in vivo; conditions: three cycles of pulse-intermittent iSHP-1 with proinflammatory agents
From the text: FIGS. 10A-10B depicts pulse-intermittent iSHP-1 design and treatment schemes. In preclinical tumor models, we have tested three pulsed treatment schemes, pulses-1, -2 and -3, with iSHP-1 given once, twice or three times consecutively (1× per day) at the beginning of each cycle, and an intermittent period of 2-9 days withholding iSHP-1 treatment between cycles. The combination modalities include, but are not limited to, TLR ligands, STING activator, RT, anti-PD-1/L1 immune checkpoint blockade (αPD-1/L1), inflammatory cytokines, chemotherapies and oncolytic viruses. These combination regimens were given together with SHP-1 inhibitor or following separate dosing schedules. Murine solid tumor models with a single tumor or multi-lesions (metastases) in syngeneic mice of different backgrounds were tested. These models were established by engrafting tumors in multiple locations, and iSHP-1 treatment began when a single tumor reaches ≥200 mm^3 in size or the total tumor burden ≥300 mm^3. […]
Throughout treatments, anti-tumoral efficacies (tumor volume changes and survival rates), adverse effects (body weight loss, proteinuria, anemia and clinical discomfort), gross organ toxicity and tissue inflammation due to toxicity, and the TME immune landscape changes were analyzed at different time points and at the terminal point. […]

Compound: O=C1C=CC(=O)C(c2cc(Cl)ccc2Cl)=C1 [TPI-1]
- tumor elimination incl. distal lesions [1]: effectively eliminating or repressing KPC pancreatic cancer and LLC lung cancer along with distal lesions
- phagocytosis of cancer cells [2]: promotes proinflammatory-activated macrophages for phagocytosis of cancer cells
- lung inflammation [3]: nor did it incur lung inflammation
- splenomegaly, body weight loss, anemia [3]: did not cause splenomegaly, body weight loss or anemia
- acute adverse toxicity [4]: did not incur acute adverse toxicity
- anti-tumor immune cells ([5]; TPI-1 combined with αTLR, i.p.): bolstered anti-tumor immune cells such as CD8+ T cells, NK cells and neutrophils
- eradication of late-stage tumors ([5]; TPI-1 combined with αTLR, i.p.): effectively eradiated late-stage, large KPC pancreatic cancers
- intratumoral immunosuppressive populations ([5]; TPI-1 with TLR agonists, day 4): reduction of intratumoral immunosuppressive populations including macrophages (MØ) and MDSC
- organ damage, anemia, splenomegaly [6]: did not exhibit serious lung or kidney damage, anemia or splenomegaly
